Assay results published in patent US20230212202A1, “TREATMENT OF MGMT DEFICIENT CANCER WITH 2-FLUOROETHYL-SUBSTITUTED NITROSOUREAS AND OTHER COMPOUNDS” (YALE UNIVERSITY, priority 2021, published 2023).

Assays:
LN229 MGMT-/MMR+ cells [1] = assay: IR alkaline comet assay; format: cell-based, human
[2] = test system: PD20 cells, FANCD2-/- or +FANCD2; assay: Short-term viability assay; format: cell-based, human; details: PD20 FANCD2-/- vs +FANCD2
[3] = test system: LN229 MGMT+/-, MMR+/- cells; assay: Micronuclei analysis; format: cell-based, human; details: 20 µM, 48 h
Description: Micronuclei Analysis. An automated image analysis pipeline was developed by YCMD using InCell Analyzer software to quantify micronuclei formation. Nuclei and micronuclei were segmented based on Hoechst nucleic acid dye staining channel. A perinuclear margin was applied around the nuclei to approximate the extent of the cytoplasm and identify micronuclei associated with the parent nucleus. Cells with nuclei associated with at least 1 micronucleus were considered positive.

[4] = test system: WT and XPA-deficient MEFs; assay: Short-term cell viability assay in NER isogenic MEFs; format: cell-based, mouse; details: ±MGMT depletion with O6BG
Description: Short-term Cell Viability Assay.

[5] = test system: CHK1 and CHK2 phosphorylation in LN229 MGMT+/-, MMR+/- cells; assay: Western blotting of CHK1 and CHK2 phosphorylation; format: cell-based, human; details: 20 µM, 24 or 48 h
Description: (§1) Western Blotting. For phospho-protein analysis experiments, cells were lysed in 1X RIPA buffer (Cell Signaling Technology, #9806) supplemented with 1X Protease Inhibitor Cocktail (Roche) and 1X PhosSTOP Phosphatase Inhibitor Cocktail (Sigma). For all other western blot analyses, cells were lysed in lysis buffer (50 mM HEPES, 250 mM NaCl, 5 mM EDTA, 1% NP-40) supplemented with 1X Protease Inhibitor Cocktail (Roche). The de-ubiquitination inhibitor N-ethylmaleimide (NEM, 4 mM) was added in FANCD2 ubiquitination analysis experiments. Proteins were separated using NuPAGE 4-12% Bis-Tris or 3-8% Tris-Acetate Gels (Invitrogen) and transferred to Immobilon-P PVDF membrane (Millipore) for western blotting. Membranes were blocked with 5% milk in TBS-T for 1 h prior to primary antibody addition overnight at 4° C. […] Where shown, bands were quantified using ImageJ software.

LN229 MGMT-/MMR+ cells [6] = assay: Genomic DNA denaturing gel electrophoresis; format: cell-based, human
Description: Genomic DNA Denaturing Gel Electrophoresis. Assay was adapted from N. Bossuet-Greif et al., The Colibactin Genotoxin Generates DNA Interstrand Cross-Links in Infected Cells. mBio 9, (2018). Cells were trypsinized, washed with 1X PBS, and stored at -80° C. prior to processing. Genomic DNA was extracted with the DNeasy Blood & Tissue Kit (Qiagen) per kit protocol. A 0.7% agarose gel was prepared in 100 mM NaCl-2mM EDTA (pH 8) and soaked in 40 mM NaOH-1 mM EDTA running buffer for 2 h. Genomic DNA (400 ng/well) was then loaded in 1X BlueJuice loading buffer (Invitrogen) and subjected to electrophoresis at 2 V/cm for 30 min, followed by 3 V/cm for 2 h. The gel was neutralized in 150 mM NaCl-100 mM Tris (pH 7.4) for 30 min, twice, and then stained with 1X SYBR Gold in 150 mM NaCl-100 mM Tris (pH 7.4) for 90 min. Imaging was performed on a ChemiDoc XRS+ Molecular Imager (Bio-Rad).

[7] = test system: FANCD2 ubiquitination in LN229 MGMT+/-, MMR+/- cells; assay: Western blot analysis of FANCD2 ubiquitination; format: cell-based, human
Description: as §1

[8] = Maximum tolerated dose study in healthy mice; format: in vivo, mouse
Description: Healthy mice were treated with escalating doses of KL-50 (4a) (0, 25, 50, 100, and 200 mg/kg × 1 dose), and monitored over time for changes in both weights and hematologic profiles. Mice in the higher dosage groups (100 or 200 mg/kg) experienced a greater than 10% weight loss after treatment administration, which regressed to baseline at the end of one week (FIG. 6B). […] As the main dose limiting systemic toxicity of TMZ (1a) is myelosuppression, complete blood counts were measured for all mice on day 0 before treatment and subsequently on day 7 after drug administration.

[9] = test system: LN229 MGMT+/-, MMR+/- cells; assay: Clonogenic survival assay; format: cell-based, human
Description: Clonogenic Cell Survival Assay. Cells were trypsinized, washed, counted, and diluted in a medium containing various concentrations of drug. They were then immediately seeded in six-well plates in triplicate at three-fold dilutions, ranging from 9000 to 37 cells per well. Depending on colony size, these plates were kept in the incubator for 10 to 14 days. After incubation, colonies were washed in phosphate-buffered saline (PBS), stained with crystal violet, counted, and quantified.

[10] = test system: PEO4 (BRCA2+) and PEO1 (BRCA2-/-) cells; assay: Short-term viability assay with or without O6BG; format: cell-based, human

**Q.** With `NC(=O)c1ncn2c(=O)n(CCF)nnc12` [KL-50] as the compound, how does the “IR-induced comet tail (ICL detection)” value (LN229 MGMT-/MMR+ cells [1]; 200 µM, 24 h, 10 Gy) read?
**A.** Its value is “reduced the %DNA in the tail to levels similar to those seen for 0.1 µM MMC”.

**Q.** What about the “comet tailing in the absence of IR” value (LN229 MGMT-/MMR+ cells [1]; TMZ, KL-50 200 µM, MMC 0.1 or 50 µM) of the same compound?
**A.** Its value is “induced tailing”.

**Q.** What about the “sensitivity of FANCD2-deficient cells” value [2] of the same compound?
**A.** The value was “hypersensitive”.

**Q.** What about the micronuclei formation [3] of the same compound?
**A.** The micronuclei formation was “significant increase in micronuclei”.

**Q.** What about the “sensitivity of XPA deficient cells” value [4] of the same compound?
**A.** Its value is “absence of additional sensitivity”.

**Q.** What about the “CHK1 and CHK2 phosphorylation” value [5] of the same compound?
**A.** The value was “induced CHK1 and CHK2 phosphorylation in MGMT- cells regardless of MMR status”.

**Q.** And the “crosslinked genomic DNA” value (LN229 MGMT-/MMR+ cells [6])?
**A.** The value was “presence of crosslinked DNA”.

**Q.** And the FANCD2 ubiquitination [7]?
**A.** Its FANCD2 ubiquitination is “observed specifically in MGMT- cells”.

**Q.** What about the tolerability ([8]; 0, 25, 50, 100, 200 mg/kg × 1 dose) of the same compound?
**A.** The tolerability was “well-tolerated”.

**Q.** What about the “mice observably ill warranting euthanasia” value ([8]; 200 mg/kg) of the same compound?
**A.** The value was “Two of three mice”.

**Q.** What about the “weight loss after treatment administration” value ([8]; 100 or 200 mg/kg, regressed to baseline at one week) of the same compound?
**A.** Its value is “greater than 10%”.

**Q.** And the complete blood counts ([8]; day 7, all cohorts)?
**A.** Its complete blood counts is “within normal physiological ranges”.

**Q.** And the “clonogenic survival, MGMT+ cells” value ([9]; LN229 MGMT+ cells)?
**A.** Its value is “minimal toxicity to MGMT+ cells at doses up to at least 200 µM”.

**Q.** What about the “clonogenic survival, MGMT- cells” value ([9]; LN229 MGMT- cells, MMR+/-) of the same compound?
**A.** Its value is “robust antitumor activity in MGMT- cells, independent of MMR status”.

**Q.** What about the “sensitivity of BRCA2-/- cells” value [10] of the same compound?
**A.** The value was “BRCA2 loss enhanced the toxicity”.

**Q.** And the “therapeutic index (TI)” value ([10]; PEO1/4 model)?
**A.** Its value is 62 fold.
